Source: patent publication US12139473B2, “Substituted-N-heteroaryl compounds and uses thereof” (Bionomics Limited, priority 2019, dated 2024)

What was measured:
hKv3.1 = molecular target: T1, hKv3.1 (Homo sapiens, UniProt P48547); experiment: Automated patch clamp electrophysiology (Patchliner), CHO/Kv3.1 cells; format: cell-based; conditions: 10 μM compound, hKv3.1 in CHO-K1, whole-cell; for Kv3.1 Activity at 10 μM Potentiation (%): peak current at voltage step of −10 mV vs vehicle (0.33% DMSO); for Kv3.1 Activity at 10 μM Voltage Shift (mV): voltage shift of the IV curve at V1/2
T1 construct: expressed in transfected cells
T1 sequence (P48547 1-511): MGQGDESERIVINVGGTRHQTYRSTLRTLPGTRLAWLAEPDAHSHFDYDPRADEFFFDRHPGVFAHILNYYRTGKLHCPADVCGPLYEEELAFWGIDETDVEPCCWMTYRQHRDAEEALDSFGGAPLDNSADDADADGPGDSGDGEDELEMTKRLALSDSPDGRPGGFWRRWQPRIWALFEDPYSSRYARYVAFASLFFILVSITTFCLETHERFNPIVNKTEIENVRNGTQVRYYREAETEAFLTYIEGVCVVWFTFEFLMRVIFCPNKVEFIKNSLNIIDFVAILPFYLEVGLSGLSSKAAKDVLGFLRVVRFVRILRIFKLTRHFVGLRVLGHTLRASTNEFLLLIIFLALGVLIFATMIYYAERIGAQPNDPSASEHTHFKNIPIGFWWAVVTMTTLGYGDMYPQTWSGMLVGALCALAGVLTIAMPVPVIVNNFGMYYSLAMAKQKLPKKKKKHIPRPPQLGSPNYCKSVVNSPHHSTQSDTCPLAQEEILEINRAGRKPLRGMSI
Procedure: (§1) hKv3.1, hKv3.2, hKv3.3, and hKv3.4 were stably expressed in CHO-K1 (Chinese hamster ovary) cells and kept under constant antibiotic selection. For in vitro assays, cells were maintained in appropriate growth medium at 37° C. and 5% CO2 in a humidified incubator.
(§2) hKv3.X expressing cells were plated in T-25 flasks for 3-4 days at 37° C. (no selection antibiotic) prior to use and grown to 80% confluence. Cells were washed twice with PBS (calcium and magnesium free) and detached with a 5-minute treatment at 37° C. with 2-3 mls of Accutase®. Cells were collected, and flask was washed in CHO-SFM II media (Life Technologies Gibco), centrifuged for 2 minutes at ˜110×g and resuspended to obtain a single cell suspension of ˜2-3×10^6 cells/ml.
(§3) The intracellular solution contained the following (in mM): KCl 50, NaCl 10, KF 60, EGTA 20, HEPES 10, adjusted to pH 7.2 with KOH and an osmolarity of 285 mOsmol. Seal enhancer was purchased from Nanion (80 mM NaCl, 3 mM KCl, 10 mM MgCl2, 35 mM CaCl2), 10 mM HEPES, pH7.4, 298 mOsmol. The external solution contained (in mM): NaCl 140, KCl 4, CaCl2) 2, MgCl2 1, HEPES 10, Glucose 5, adjusted to pH7.4 and an osmolarity of 298 mOsmol.
(§4) All compounds were initially tested at 10 uM at a final DMSO concentration of 0.33%. Compounds were dissolved in dimethylsulfoxide (DMSO) at a stock concentration of 30 mM. The compound was further diluted 1:10 to give a stock concentration of 3 mM in DMSO. The final assay solution was diluted 1:300 in External solution to give a final concentration of 10 uM. For the DMSO Control Buffer 30 uL of DMSO was added to 10 mL buffer.
(§5) All electrophysiological recordings were performed at ambient temperature (21-23° C.) using automated patch clamp (Patchliner, Nanion Technologies GmbH) in the whole-cell configuration.
(§6) Cell membrane potentials were held at −80 mV, and currents were evoked by voltage steps (1000 ms duration) from −60 to +60 mV in 10 mV increments. This was performed first with vehicle (0.33% DMSO) and then with 10 uM compound, after a 3-minute incubation period. Data was taken from 4 cells per assay.
(§7) The recordings were analysed and selected using peak current amplitude (>100 pA at the −10 mV voltage step) in the absence of compound to eliminate unsuitable cells from analysis. Peak current amplitude was measured and recorded for each voltage step and data was normalised to the maximum current at +60 mV. The normalised Kv3.x currents following addition of the compound were then compared with the currents recorded prior to compound addition (vehicle control). Positive modulation was determined as % potentiation at the voltage step of −10 mV=[current (cmpd)/current (veh)]*100−100. % potentiation≥50% was considered acceptable. In addition, voltage shift of the IV curve at V1/2 was measured. V1/2 of ≥−5 mV was also considered acceptable. IV curves were plotted in GraphPad Prism (software version 6.0) and fitted with a Boltzmann equation, where V1/2 is the voltage at half-maximal activation.

hKv3.2 = molecular target: T2, hKv3.2 (Homo sapiens, UniProt Q96PR1); experiment: Automated patch clamp electrophysiology (Patchliner), CHO/Kv3.2 cells; format: cell-based; conditions: 10 μM compound, hKv3.2 in CHO-K1, whole-cell; for activation at 10 µM: peak current at voltage step of −10 mV vs vehicle (0.33% DMSO), read-out: Kv3.2 Activity at 10 μM Potentiation (%); for Kv3.2 Activity at 10 μM Voltage Shift (mV): voltage shift of the IV curve at V1/2
T2 construct: expressed in transfected cells
T2 sequence (Q96PR1 1-638): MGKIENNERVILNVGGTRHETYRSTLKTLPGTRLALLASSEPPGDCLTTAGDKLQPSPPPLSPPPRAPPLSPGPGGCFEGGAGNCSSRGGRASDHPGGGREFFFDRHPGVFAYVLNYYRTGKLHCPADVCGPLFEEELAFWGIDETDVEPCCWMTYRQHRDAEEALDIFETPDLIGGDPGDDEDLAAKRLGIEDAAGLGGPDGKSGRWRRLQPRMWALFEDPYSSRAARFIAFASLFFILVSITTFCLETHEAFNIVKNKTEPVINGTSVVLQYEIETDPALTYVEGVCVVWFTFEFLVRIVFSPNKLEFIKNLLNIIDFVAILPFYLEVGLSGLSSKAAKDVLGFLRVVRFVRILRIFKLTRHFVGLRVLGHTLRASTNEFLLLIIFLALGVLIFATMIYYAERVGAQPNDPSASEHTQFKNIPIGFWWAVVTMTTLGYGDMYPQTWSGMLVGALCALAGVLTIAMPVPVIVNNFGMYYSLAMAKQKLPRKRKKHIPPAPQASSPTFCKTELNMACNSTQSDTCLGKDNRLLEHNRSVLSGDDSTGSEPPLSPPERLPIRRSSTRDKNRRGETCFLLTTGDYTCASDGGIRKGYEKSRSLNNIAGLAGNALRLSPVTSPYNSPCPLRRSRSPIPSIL
Procedure: as §1, §2, §3, §4, §5, §6, §7

SMILES | Kv3.1 Activity at 10 μM Potentiation (%) (hKv3.1) | Kv3.1 Activity at 10 μM Voltage Shift (mV) (hKv3.1) | activation at 10 µM (hKv3.2) [%] | Kv3.2 Activity at 10 μM Voltage Shift (mV) (hKv3.2)
COc1cc(Oc2cc(N3C(=O)NC(C)(C)C3=O)ncn2)ccc1C [Example 1, 3-[6-(3-methoxy-4-methyl-phenoxy)pyrimidin-4-yl]-5,5-dimethyl-imidazolidine-2,4-dione] | 45 | −5.5 | 25 | −4.3 mV
COc1cc(Oc2cc(N3C(=O)NC(C)(C)C3=O)ncn2)ccc1F [Example 13, 3-[6-(3-methoxy-4-fluoro-phenoxy)pyrimidin-4-yl]-5,5-dimethyl-imidazolidine-2,4-dione] | 40 | −2.7 | 86 | −9.2 mV
COc1cc(Oc2cc(N3C(=O)NC4(CCCC4)C3=O)ncn2)ccc1F [Example 14, 3-[6-(4-fluoro-3-methoxy-phenoxy)pyrimidin-4-yl]-1,3-diazaspiro[4.4]nonane-2,4-dione] | 43 | −2.3 | 42 | −1.1 mV
COc1cc(Oc2cc(N3C(=O)NC4(CCCCC4)C3=O)ncn2)ccc1F [Example 15, 3-[6-(4-fluoro-3-methoxy-phenoxy)pyrimidin-4-yl]-1,3-diazaspiro[4.5]decane-2,4-dione] | 17 | −2.7 | 1 | −0.3 mV
Cc1ccc(Oc2cc(N3C(=O)NC(C)(C)C3=O)ncn2)cc1F [Example 16, 3-[6-(3-fluoro-4-methyl-phenoxy)pyrimidin-4-yl]-5,5-dimethyl-imidazolidine-2,4-dione] | 63 | −4.2 | 24 | −2.8 mV
Cc1ccc(Oc2cc(N3C(=O)NC(C)(C)C3=O)ncn2)c2c1OCC21CC1 [Example 47, 5,5-dimethyl-3-[6-(7-methylspiro[2H-benzofuran-3,1′-cyclopropane]-4-yl)oxypyrimidin-4-yl]imidazolidine-2,4-dione] | 36 | −2.8 | 54 | −4.9 mV
COc1cc(Oc2ccnc(N3C(=O)NC4(CCCCC4)C3=O)n2)ccc1C [Example 50, 3-[4-(3-methoxy-4-methyl-phenoxy)pyrimidin-2-yl]-1,3-diazaspiro[4.5]decane-2,4-dione] | 2 | −1.5 | -7 | +1.6 mV
COc1cc(Oc2cncc(N3C(=O)NC(C)(C)C3=O)n2)ccc1C [Example 53, 3-[6-(3-methoxy-4-methyl-phenoxy)pyrazin-2-yl]-5,5-dimethyl-imidazolidine-2,4-dione] | 52 | −4.0 | 49 | −6.0 mV
CC[C@H]1NC(=O)N(c2nccc(Oc3ccc(C)c(OC)c3)n2)C1=O [Example 56, (5R)-5-ethyl-3-[4-(3-methoxy-4-methyl-phenoxy)pyrimidin-2-yl]imidazolidine-2,4-dione] | 26 | −5.0 | 35 | −4.6 mV

Results, then the compound that gave them:

Kv3.1 Activity at 10 μM Potentiation (%) (hKv3.1) | Kv3.1 Activity at 10 μM Voltage Shift (mV) (hKv3.1) | activation at 10 µM (hKv3.2) [%] | Kv3.2 Activity at 10 μM Voltage Shift (mV) (hKv3.2) | SMILES
61 | −6.9 | 39 | −4.6 mV | CC[C@H]1NC(=O)N(c2nccc(Oc3ccccc3-c3ccccc3)n2)C1=O [Example 58, (5R)-5-ethyl-3-[4-(2-phenylphenoxy)pyrimidin-2-yl]imidazolidine-2,4-dione]
50 | −4.2 | 25 | −2.3 mV | COc1cc(Oc2nccc(N3C(=O)NC(C)(C)C3=O)n2)ccc1C [Example 63, 3-[2-(3-methoxy-4-methyl-phenoxy)pyrimidin-4-yl]-5,5-dimethyl-imidazolidine-2,4-dione]
32 | −2.7 | 35 | −2.8 mV | COc1cc(Oc2nccc(N3C(=O)NC(C)(C)C3=O)n2)ccc1C(F)(F)F [Example 65, 3-[2-[3-methoxy-4-(trifluoromethyl)-phenoxy]pyrimidin-4-yl]-5,5-dimethyl-imidazolidine-2,4-dione]
– | – | 54 | −3.5 mV | COc1cc(Oc2nccc(N3C(=O)NC(C)(C)C3=O)n2)ccc1Cl [Example 66, 3-[2-(4-chloro-3-methoxy-phenoxy)pyrimidin-4-yl]-5,5-dimethyl-imidazolidine-2,4-dione]
41 | −3.8 | 12 | −1.6 mV | COc1cc(Oc2nccc(N3C(=O)NC4(CCCCC4)C3=O)n2)ccc1C [Example 74, 3-[2-(3-methoxy-4-methyl-phenoxy)pyrimidin-4-yl]-1,3-diazaspiro[4.5]decane-2,4-dione]
